Assay [1] deals with T1, Retinoic acid receptor alpha (Homo sapiens, UniProt P10276). The experiment in a line: Affinity On-target Cellular interaction: (Reporter gene assay (HEK293T cells)) EUB0000565a RARA. It counts as functional, cell-based, HEK-293T. Set-up: mode of action Agonist, recommended concentration 1 uM. Background: Reporter assays use an easily measured gene product as a stand-in for the process of interest.

The target in assay [2] is T2, Peroxisome proliferator-activated receptor delta (Homo sapiens, UniProt Q03181).
T2 sequence (Q03181 whole entry): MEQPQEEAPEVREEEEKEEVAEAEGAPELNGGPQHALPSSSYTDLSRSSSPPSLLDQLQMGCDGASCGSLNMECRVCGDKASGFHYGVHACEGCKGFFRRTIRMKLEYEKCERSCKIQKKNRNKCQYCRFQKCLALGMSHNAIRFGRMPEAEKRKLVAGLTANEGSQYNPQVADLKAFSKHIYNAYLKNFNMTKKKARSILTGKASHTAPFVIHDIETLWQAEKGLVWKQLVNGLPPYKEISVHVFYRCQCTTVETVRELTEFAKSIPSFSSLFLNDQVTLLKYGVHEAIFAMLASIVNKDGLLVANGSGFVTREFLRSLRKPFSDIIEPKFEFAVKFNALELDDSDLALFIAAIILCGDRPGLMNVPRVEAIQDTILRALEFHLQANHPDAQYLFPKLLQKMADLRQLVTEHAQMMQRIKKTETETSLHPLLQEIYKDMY

The target in assay [3] is T3, Peroxisome proliferator-activated receptor gamma (Homo sapiens, UniProt P37231).
T3 sequence (P37231 whole entry): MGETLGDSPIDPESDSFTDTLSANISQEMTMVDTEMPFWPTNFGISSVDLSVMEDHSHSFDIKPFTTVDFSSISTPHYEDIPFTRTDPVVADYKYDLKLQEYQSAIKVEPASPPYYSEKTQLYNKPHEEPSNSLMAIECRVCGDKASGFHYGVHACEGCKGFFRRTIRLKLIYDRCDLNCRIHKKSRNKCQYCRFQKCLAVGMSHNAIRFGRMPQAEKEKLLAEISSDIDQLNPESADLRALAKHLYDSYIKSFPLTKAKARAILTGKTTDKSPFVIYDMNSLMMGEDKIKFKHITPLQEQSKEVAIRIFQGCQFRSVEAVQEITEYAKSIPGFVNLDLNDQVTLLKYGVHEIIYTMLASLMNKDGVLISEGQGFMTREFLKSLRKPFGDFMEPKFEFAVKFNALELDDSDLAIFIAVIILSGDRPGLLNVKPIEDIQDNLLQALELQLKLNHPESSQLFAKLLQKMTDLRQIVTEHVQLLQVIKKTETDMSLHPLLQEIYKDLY
The experiment in a line: Affinity On-target Cellular interaction: (Reporter gene assay (HEK293T cells)) EUB0001147a PPARG. The assay is classed as functional, cell-based, HEK-293T. Set-up: mode of action Agonist, recommended concentration 1 uM.

Assay [4] has as its target T4, Peroxisome proliferator-activated receptor alpha (Homo sapiens, UniProt Q07869).
T4 sequence (Q07869 whole entry): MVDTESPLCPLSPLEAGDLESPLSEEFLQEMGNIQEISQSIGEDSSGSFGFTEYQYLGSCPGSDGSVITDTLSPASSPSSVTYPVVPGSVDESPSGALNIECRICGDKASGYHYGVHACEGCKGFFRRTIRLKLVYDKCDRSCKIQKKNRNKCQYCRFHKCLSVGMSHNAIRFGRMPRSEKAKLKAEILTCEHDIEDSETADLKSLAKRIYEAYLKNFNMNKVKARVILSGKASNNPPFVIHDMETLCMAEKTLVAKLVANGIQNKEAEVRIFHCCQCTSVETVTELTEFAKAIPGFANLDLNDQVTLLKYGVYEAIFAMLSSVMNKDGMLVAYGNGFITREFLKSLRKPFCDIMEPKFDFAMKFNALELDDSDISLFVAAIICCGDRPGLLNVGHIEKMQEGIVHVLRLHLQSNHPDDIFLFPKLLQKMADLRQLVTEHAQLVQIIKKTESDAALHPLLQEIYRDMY
The experiment in a line: Affinity On-target Cellular interaction: (Reporter gene assay (HEK293T cells)) EUB0001147a PPARA. More on the design: mode of action Agonist, recommended concentration 1 uM. It counts as functional, cell-based, HEK-293T.

Assay [5] concerns the target T5, Oxysterols receptor LXR-alpha (Homo sapiens, UniProt Q13133).
T5 sequence (Q13133 whole entry): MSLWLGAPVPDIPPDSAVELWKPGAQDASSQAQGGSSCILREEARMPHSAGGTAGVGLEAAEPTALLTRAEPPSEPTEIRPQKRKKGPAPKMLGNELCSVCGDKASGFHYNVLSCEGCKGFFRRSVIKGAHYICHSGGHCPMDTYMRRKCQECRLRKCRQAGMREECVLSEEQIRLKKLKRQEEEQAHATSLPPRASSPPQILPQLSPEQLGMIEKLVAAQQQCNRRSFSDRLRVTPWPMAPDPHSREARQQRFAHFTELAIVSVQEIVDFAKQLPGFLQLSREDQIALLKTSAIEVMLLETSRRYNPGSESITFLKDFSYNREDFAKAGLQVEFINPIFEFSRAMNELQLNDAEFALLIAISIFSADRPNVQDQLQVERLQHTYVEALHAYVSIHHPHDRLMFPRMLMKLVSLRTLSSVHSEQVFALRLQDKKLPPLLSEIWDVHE
The experiment in a line: Affinity On-target Cellular interaction: (Reporter gene assay (HEK293T cells)) EUB0000183b NR1H3. Set-up: mode of action Antagonist, recommended concentration 3 uM. The assay is classed as functional, cell-based, HEK-293T.

In assay [6] the target is T6, Oxysterols receptor LXR-beta (Homo sapiens, UniProt P55055).
T6 sequence (P55055 whole entry): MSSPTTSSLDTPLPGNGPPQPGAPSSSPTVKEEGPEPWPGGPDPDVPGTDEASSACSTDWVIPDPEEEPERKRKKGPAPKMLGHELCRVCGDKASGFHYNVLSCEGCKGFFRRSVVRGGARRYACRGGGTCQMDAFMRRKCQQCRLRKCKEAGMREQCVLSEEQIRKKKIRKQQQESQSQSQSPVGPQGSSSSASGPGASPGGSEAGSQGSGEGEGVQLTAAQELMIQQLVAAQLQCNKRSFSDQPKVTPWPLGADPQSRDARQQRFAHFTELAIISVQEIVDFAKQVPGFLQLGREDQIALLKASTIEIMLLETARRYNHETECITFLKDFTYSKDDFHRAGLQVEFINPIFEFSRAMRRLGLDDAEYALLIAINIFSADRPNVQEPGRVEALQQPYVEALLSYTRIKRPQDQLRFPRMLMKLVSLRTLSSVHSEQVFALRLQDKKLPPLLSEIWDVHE
The experiment in a line: Affinity On-target Cellular interaction: (Reporter gene assay (HEK293T cells)) EUB0000183b NR1H2. More on the design: mode of action Antagonist, recommended concentration 3 uM. The assay is classed as functional, cell-based, HEK-293T.

The target in assay [7] is Lysine-specific demethylase 4A (Homo sapiens) (UniProt O75164). The experiment in a line: Affinity On-target Cellular interaction: (Cellular thermal shift assay (CETSA), U2OS cells) EUB0002543a KDM4A. The note with it: Affinity On-target Cellular Source Knowledge https://www.nature.com/articles/ncomms14773#Tab1. Set-up: recommended concentration 1 uM. The assay is classed as functional, cell-based.

Assay [8] concerns the target T4, Peroxisome proliferator-activated receptor alpha. The experiment in a line: Affinity On-target Cellular interaction: (Reporter gene assay (HEK293T cells)) EUB0001140a PPARA. The assay is classed as functional, cell-based, HEK-293T. More on the design: mode of action Agonist, recommended concentration 1 uM.
The target in assay [9] is T1, Retinoic acid receptor alpha. The experiment in a line: Affinity On-target Cellular interaction: (Reporter gene assay (HEK293T cells)) EUB0000835a RARA. It counts as functional, cell-based, HEK-293T. Set-up: mode of action Agonist, recommended concentration 1 uM.
The target of assay [10] is Retinoic acid receptor gamma (Homo sapiens, UniProt P13631). The experiment in a line: Affinity On-target Cellular interaction: (Reporter gene assay (HEK293T cells)) EUB0000835a RARG. It counts as functional, cell-based, HEK-293T. More on the design: mode of action Agonist, recommended concentration 1 uM.
The target in assay [11] is Retinoic acid receptor beta (Homo sapiens, UniProt P10826). The experiment in a line: Affinity On-target Cellular interaction: (Reporter gene assay (HEK293T cells)) EUB0000835a RARB. The assay is classed as functional, cell-based, HEK-293T. More on the design: mode of action Agonist, recommended concentration 1 uM.
For assay [12], the target named is Vitamin D3 receptor (Homo sapiens, UniProt P11473). The experiment in a line: Affinity On-target Cellular interaction: (Reporter gene assay (HEK293T cells)) EUB0000583a VDR. The assay is classed as functional, cell-based, HEK-293T. More on the design: mode of action Agonist, recommended concentration 1 uM.
The target of assay [13] is T3, Peroxisome proliferator-activated receptor gamma. The experiment in a line: Affinity On-target Cellular interaction: (Reporter gene assay (HEK293T cells)) EUB0000188b PPARG. It counts as functional, cell-based, HEK-293T. More on the design: mode of action Agonist, recommended concentration 1 uM.
For assay [14], the target named is T4, Peroxisome proliferator-activated receptor alpha. The experiment in a line: Affinity On-target Cellular interaction: (Reporter gene assay (HEK293T cells)) EUB0000188b PPARA. The assay is classed as functional, cell-based, HEK-293T. Set-up: mode of action Agonist, recommended concentration 1 uM.
Assay [15] deals with T2, Peroxisome proliferator-activated receptor delta. The experiment in a line: Affinity On-target Cellular interaction: (Reporter gene assay (HEK293T cells)) EUB0000188b PPARD. Set-up: mode of action Agonist, recommended concentration 1 uM. The assay is classed as functional, cell-based, HEK-293T.
For assay [16], the target named is T3, Peroxisome proliferator-activated receptor gamma. The experiment in a line: Affinity On-target Cellular interaction: (Reporter gene assay (HEK293T cells)) EUB0001143a PPARG. The assay is classed as functional, cell-based, HEK-293T. Set-up: mode of action Agonist, recommended concentration 1 uM.
Assay [17] has the same target. The experiment in a line: Affinity On-target Cellular interaction: (Reporter gene assay (HEK293T cells)) EUB0000571a PPARG. Set-up: mode of action Agonist, recommended concentration 1 uM. It counts as functional, cell-based, HEK-293T.

T1 sequence (P10276 whole entry): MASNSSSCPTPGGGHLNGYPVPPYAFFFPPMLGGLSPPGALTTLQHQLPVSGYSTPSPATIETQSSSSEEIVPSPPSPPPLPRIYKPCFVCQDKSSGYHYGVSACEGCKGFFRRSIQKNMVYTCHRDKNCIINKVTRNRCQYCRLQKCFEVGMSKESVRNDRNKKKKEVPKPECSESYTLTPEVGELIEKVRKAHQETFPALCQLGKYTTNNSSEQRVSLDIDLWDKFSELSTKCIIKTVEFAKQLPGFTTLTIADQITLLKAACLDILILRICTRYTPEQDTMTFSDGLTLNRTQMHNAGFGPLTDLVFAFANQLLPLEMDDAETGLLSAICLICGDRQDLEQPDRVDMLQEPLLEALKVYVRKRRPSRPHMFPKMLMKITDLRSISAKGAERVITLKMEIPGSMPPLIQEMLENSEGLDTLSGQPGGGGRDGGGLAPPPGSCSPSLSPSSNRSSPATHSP
Retinoic acid receptor beta, sequence (P10826 whole entry): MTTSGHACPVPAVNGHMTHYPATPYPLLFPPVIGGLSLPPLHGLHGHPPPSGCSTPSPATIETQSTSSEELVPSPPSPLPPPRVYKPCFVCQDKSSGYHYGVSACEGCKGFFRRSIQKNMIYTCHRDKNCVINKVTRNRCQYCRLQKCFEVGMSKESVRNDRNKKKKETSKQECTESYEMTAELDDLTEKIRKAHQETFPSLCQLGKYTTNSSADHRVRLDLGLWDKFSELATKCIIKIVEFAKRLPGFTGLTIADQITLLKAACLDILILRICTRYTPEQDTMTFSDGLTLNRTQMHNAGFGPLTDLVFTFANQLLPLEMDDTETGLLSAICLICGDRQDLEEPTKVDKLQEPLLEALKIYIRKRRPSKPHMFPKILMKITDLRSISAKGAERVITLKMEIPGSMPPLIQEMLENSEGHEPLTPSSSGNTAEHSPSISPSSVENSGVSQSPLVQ
Lysine-specific demethylase 4A (Homo sapiens), sequence (O75164 whole entry): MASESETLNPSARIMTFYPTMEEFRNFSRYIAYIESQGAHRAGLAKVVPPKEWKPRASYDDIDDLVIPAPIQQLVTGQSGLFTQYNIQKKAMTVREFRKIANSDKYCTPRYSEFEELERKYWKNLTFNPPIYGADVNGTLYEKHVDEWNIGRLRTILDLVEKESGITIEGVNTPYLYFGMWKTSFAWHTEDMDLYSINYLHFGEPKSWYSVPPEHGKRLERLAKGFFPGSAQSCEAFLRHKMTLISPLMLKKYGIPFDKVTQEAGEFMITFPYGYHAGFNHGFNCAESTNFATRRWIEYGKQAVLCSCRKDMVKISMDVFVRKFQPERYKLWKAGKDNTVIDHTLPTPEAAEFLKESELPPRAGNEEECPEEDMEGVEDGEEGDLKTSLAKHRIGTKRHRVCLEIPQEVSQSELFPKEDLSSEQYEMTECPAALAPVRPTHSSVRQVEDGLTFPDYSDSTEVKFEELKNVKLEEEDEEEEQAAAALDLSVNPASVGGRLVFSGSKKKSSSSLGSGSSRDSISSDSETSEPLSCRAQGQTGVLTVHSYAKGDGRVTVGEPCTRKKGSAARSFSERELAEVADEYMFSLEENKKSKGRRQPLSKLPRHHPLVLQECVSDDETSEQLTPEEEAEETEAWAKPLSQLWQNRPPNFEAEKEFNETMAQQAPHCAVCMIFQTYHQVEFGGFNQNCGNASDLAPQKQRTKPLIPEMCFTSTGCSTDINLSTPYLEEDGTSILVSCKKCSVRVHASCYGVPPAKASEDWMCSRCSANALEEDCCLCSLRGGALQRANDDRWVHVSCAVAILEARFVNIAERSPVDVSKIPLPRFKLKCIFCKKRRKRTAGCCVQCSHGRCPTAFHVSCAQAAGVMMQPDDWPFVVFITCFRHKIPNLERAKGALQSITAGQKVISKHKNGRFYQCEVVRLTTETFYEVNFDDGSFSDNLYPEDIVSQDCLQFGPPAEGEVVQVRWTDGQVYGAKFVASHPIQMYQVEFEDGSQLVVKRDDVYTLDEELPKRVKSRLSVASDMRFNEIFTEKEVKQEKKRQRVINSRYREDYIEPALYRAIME
Retinoic acid receptor gamma, sequence (P13631 whole entry): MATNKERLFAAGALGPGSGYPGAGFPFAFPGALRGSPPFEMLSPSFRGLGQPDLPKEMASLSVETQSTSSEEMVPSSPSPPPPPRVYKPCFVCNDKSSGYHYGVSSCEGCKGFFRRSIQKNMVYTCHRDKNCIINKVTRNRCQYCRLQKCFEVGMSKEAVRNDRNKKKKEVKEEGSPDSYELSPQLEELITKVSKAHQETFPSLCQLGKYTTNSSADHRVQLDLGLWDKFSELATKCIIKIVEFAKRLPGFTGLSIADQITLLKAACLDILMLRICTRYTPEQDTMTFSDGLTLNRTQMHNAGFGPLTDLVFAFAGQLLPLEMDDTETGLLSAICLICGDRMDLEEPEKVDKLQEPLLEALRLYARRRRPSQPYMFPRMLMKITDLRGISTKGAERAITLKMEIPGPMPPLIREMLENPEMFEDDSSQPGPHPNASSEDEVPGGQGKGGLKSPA
Vitamin D3 receptor, sequence (P11473 whole entry): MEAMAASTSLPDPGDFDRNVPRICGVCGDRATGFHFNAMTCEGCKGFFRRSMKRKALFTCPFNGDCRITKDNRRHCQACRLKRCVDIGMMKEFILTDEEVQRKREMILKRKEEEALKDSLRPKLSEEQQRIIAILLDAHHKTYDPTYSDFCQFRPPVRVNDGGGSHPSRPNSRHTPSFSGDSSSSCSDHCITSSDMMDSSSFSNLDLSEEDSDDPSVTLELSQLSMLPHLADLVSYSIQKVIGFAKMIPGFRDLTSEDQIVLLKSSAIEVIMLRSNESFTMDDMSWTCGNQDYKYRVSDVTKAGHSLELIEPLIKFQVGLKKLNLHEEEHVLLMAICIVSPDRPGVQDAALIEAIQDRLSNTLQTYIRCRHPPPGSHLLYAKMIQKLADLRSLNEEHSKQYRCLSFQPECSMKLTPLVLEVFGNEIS

`CC1(C)C(=O)C(C)(C)c2cc(C(=O)Nc3ccc(C(=O)O)cc3)ccc21`: the EC50 (as a rule, the concentration giving half of the maximal effect) in assay [1] was determined as 110 nM.
`O=C(O)CCCc1cc2cc(Cl)ccc2n1S(=O)(=O)c1ccc2ncsc2c1` [LANIFIBRANOR]: the EC50 in assay [2] worked out at 900 nM.
As for `CSc1ccc(C(=O)/C=C/c2cc(C)c(OC(C)(C)C(=O)O)c(C)c2)cc1` [ELAFIBRANOR], the results for the EC50 in [3] and in [4] were 410 nM and 130 nM, respectively.
`Cc1cc(C)c(S(=O)(=O)N(Cc2ccc(-c3cccc(S(C)(=O)=O)c3)cc2)Cc2ccc(C(F)(F)F)o2)c(C)c1`: the IC50 (in general, the concentration that inhibits the measured activity by half) in assay [5] came out at 100 nM; in assay [6], 40 nM.
For the compound `CC(C)[C@@H]1NC(=O)[C@H](Cc2ccc(O)cc2)NC(=O)[C@@H](CC(=O)O)NC(=O)S[C@@H](C(=O)O)NC(=O)[C@H]([C@H](C)O)NC(=O)[C@H](Cc2ccc(O)cc2)NC(=O)[C@H](Cc2c[nH]c3ccccc23)NC(=O)[C@H](CCCNC(=N)N)NC(=O)[C@H](Cc2c[nH]c3ccccc23)NC(=O)[C@H](C)NC(=O)[C@H](CO)NC(=O)[C@H](CCCNC(=N)N)NC(=O)[C@H]([C@H](C)O)NC(=O)[C@H](CC(N)=O)NC(=O)[C@H](Cc2ccc(O)cc2)NC1=O`, in assay [7], the K is 285 nM.
Compound `COc1ccc(OC(=O)N(CC(=O)O)Cc2ccc(OCCc3nc(-c4ccccc4)oc3C)cc2)cc1` [MURAGLITAZAR] came in with an EC50 in [8] of 50 nM. This counts as double-digit nanomolar.
Regarding `C[C@H]1[C@H]2CC[C@H]3[C@@H]4CC=C5C[C@@H](N(C)C)CC[C@]5(C)[C@H]4CC[C@]23CN1C` [CONESSINE], the 50% effective concentration (EC50) was 630 nM in [9], 501 nM in [10] and 10 nM in assay [11].
`C=C1/C(=C\C=C2/CCC[C@]3(C)[C@@H]([C@H](C)/C=C/[C@H](C)C(C)C)CC[C@@H]23)C[C@@H](O)C[C@@H]1O` [DOXERCALCIFEROL]: the EC50 in assay [12] is 960 nM.
For the compound `CCCc1c(OCCCOc2ccc(OCC(=O)O)cc2)ccc(C(C)=O)c1O`, the results for the EC50 in assay [13], in assay [14] and in assay [15] were 980 nM, 1000 nM and 15 nM, respectively.
`COc1cc2c(cc1CC=C(C)C)C(=O)C[C@@H](c1ccc(O)cc1)O2` [BAVACHININ A]: a half-maximal response in assay [16] (EC50) required 730 nM.
Take `COC(=O)C(Cc1ccc(OCCn2c(=O)sc3cc(C(=O)c4ccccc4)ccc32)cc1)C(=O)OC`: the EC50 in [17] turned out to be 42 nM. In other words, the double-digit nanomolar range.

The record behind these values is ChEMBL document CHEMBL5723379, “Affinity On-target Cellular Literature for EUbOPEN Chemogenomic Library” (2024).
